From the supplement of paper PMC4862054

How the values were obtained:
Test in all cases: normalised response (% of control), CellTox Green; higher = less cell death (100 = DMSO, 0 = benzethonium chloride kill control)
Conditions in all cases: incubation time: 72 h
BT-474 = system: BT-474
Summary of the method: (§1)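 Each entry is the normalised signal at a single concentration within a series. The series comprised 5 concentrations in 10-fold steps over a compound-specific 10,000-fold range, placed in 384-well plates into which breast cancer cell lines were seeded as 20 µl suspension and incubated 72 h. CellTox Green (485/520 nm) fluorescence and then CellTiter-Glo luminescence were read, with signals normalised per plate to 0.1 % DMSO (100) and a positive kill control (0).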

MCF-10A = system: MCF-10A
Summary of the method: as §1

BT-549 = system: BT-549
Summary of the method: as §1

CAL-51 = system: CAL-51
Summary of the method: as §1

MFM-223 = system: MFM-223
Summary of the method: as §1

MDA-MB-436 = system: MDA-MB-436
Summary of the method: as §1

HCC1599 = system: HCC1599
Summary of the method: as §1

HCC1143 = system: HCC1143
Summary of the method: as §1

CAL-85-1 = system: CAL-85-1
Summary of the method: as §1

MDA-MB-468 = system: MDA-MB-468
Summary of the method: as §1

CAL-148 = system: CAL-148
Summary of the method: as §1

DU-4475 = system: DU-4475
Summary of the method: as §1

MDA-MB-453 = system: MDA-MB-453
Summary of the method: as §1

HCC1937 = system: HCC1937
Summary of the method: as §1

Hs578T = system: Hs578T
Summary of the method: as §1

| Compound | normalised response (BT-474) [%] | normalised response (MCF-10A) [%] | normalised response (BT-549) [%] | normalised response (CAL-51) [%] | normalised response (MFM-223) [%] | normalised response (MDA-MB-436) [%] | normalised response (HCC1599) [%] | normalised response (HCC1143) [%] | normalised response (CAL-85-1) [%] | normalised response (MDA-MB-468) [%] | normalised response (CAL-148) [%] | normalised response (DU-4475) [%] | normalised response (MDA-MB-453) [%] | normalised response (HCC1937) [%] | normalised response (Hs578T) [%] |
| --- | --- | --- | --- | --- | --- | --- | --- | --- | --- | --- | --- | --- | --- | --- | --- |
| NC(=O)NO [Hydroxyurea] (10000 nM) | 100 | 99.2 | 115 | 69.1 | 79.9 | 84.6 | 103 | 98.7 | 116 | 81.7 | 98.2 | 103 | 106 |  |  |
| NC(=O)NO [Hydroxyurea] (100000 nM) | 97.4 | 96.7 | 109 | 5.76 | 96.8 |  | 104 | 118 | 85.8 | 104 | 88.3 | 97.6 | 91.5 | 111 |  |
| O=C(O)CC[C@H]1CC[C@@](c2cc(F)ccc2F)(S(=O)(=O)c2ccc(Cl)cc2)CC1 [MK-0752] (1000 nM) | 104 | 114 | 107 | 118 | 57.7 | 96.9 | 109 | 88.8 | 70.6 | 106 |  | 104 |  | 104 | 91.9 |
| NC(=O)c1cccc2cn(-c3ccc([C@@H]4CCCNC4)cc3)nc12 [MK-4827] (10000 nM) | 97.5 | 94.8 | 103 | 63.6 | 98.7 | 105 | 97.4 | 127 | 70.3 | 116 | 79.6 | 89.2 | 105 |  | 118 |
| O=C(c1cc(Cc2n[nH]c(=O)c3ccccc23)ccc1F)N1CCN(C(=O)C2CC2)CC1 [Olaparib] (1000 nM) | 92.9 | 101 | 124 | 89.5 |  | 60.6 | 94.9 | 93.3 | 102 | 122 | 92.9 | 99.7 | 112 | 109 | 83.4 |
| CO[C@H](C(=O)[C@@H](O)[C@@H](C)O)[C@@H]1Cc2cc3cc(O[C@H]4C[C@@H](O[C@@H]5C[C@@H](O)[C@H](O)[C@@H](C)O5)[C@H](O)[C@@H](C)O4)c(C)c(O)c3c(O)c2C(=O)[C@H]1O[C@H]1C[C@@H](O[C@@H]2C[C@@H](O)[C@@H](O[C@@H]3C[C@](C)(O)[C@H](O)[C@@H](C)O3)[C@@H](C)O2)[C@H](O)[C@@H](C)O1 [Plicamycin] (1000 nM) | 100 | 86.6 | 107 | 94.9 | 81.3 |  | 94.9 | 81.6 | 99.3 |  | 109 | 104 | 104 | 104 | 106 |
| C[C@]12C=CC(=O)C=C1CC[C@@H]1[C@@H]2C(=O)C[C@@]2(C)[C@H]1CC[C@]2(O)C(=O)CO [Prednisone] (10000 nM) | 101 | 104 | 99.6 | 109 | 100 | 107 | 102 | 118 | 91.9 | 99.5 | 100 | 103 | 100 | 98.8 |  |
| CN1CCN(c2nc(C3=C(c4c[nH]c5ccccc45)C(=O)NC3=O)c3ccccc3n2)CC1 [Sotrastaurin] (10000 nM) | 98.4 | 104 | 99.7 | 94.2 | 101 | 68.3 | 102 | 93.5 | 128 | 194 |  | 100 | 107 | 68.4 | 118 |
| CC/C(=C(\c1ccccc1)c1ccc(OCCN(C)C)cc1)c1ccccc1 [Tamoxifen] (1000 nM) | 101 | 111 | 94 | 99.5 | 74.9 | 108 | 103 | 122 | 101 | 148 | 106 | 105 | 110 |  | 89.4 |
| CC/C(=C(\c1ccccc1)c1ccc(OCCN(C)C)cc1)c1ccccc1 [Tamoxifen] (10000 nM) | 9.58 | 81.5 | 86.1 | 105 | 88 |  | 80.4 | 108 |  | 7.06 | 80.1 | 91.1 | 35.6 | 3.06 | 74.1 |
| C[C@@H](C(=O)O)c1ccc(-c2ccccc2)c(F)c1 [Tarenflurbil] (1000 nM) | 97.1 | 91.4 | 108 | 114 | 87.5 | 60.6 | 96.3 | 105 | 87.9 | 112 |  | 96.6 | 102 | 115 |  |
| CC[C@@H]1C(=O)N(C)c2cnc(Nc3ccc(C(=O)N[C@H]4CC[C@H](N5CCN(CC6CC6)CC5)CC4)cc3OC)nc2N1C(C)C [Volasertib] (100 nM) | 94.5 | 24.1 | 79 | 46.4 | 53.5 | 64.2 | 72.2 | 81.8 | 57 | 85.1 | 31.8 | 93.2 | 98 |  | 61 |
